{"source": "patent US8992998B2", "about": "“MAPK inhibition by H2” (priority 2010, dated 2015)", "key": {"[1]": {"test_system": "LPS-induced endotoxin shock", "test": "LPS-induced endotoxin shock in mice: survival rate and plasma/serum TNF-α and IL-6", "assay_type": "in vivo, C57BL/6j mice"}, "BMMs": {"test_system": "BMMs", "test": "Proinflammatory cytokine production (ELISA) from stimulated bone marrow derived macrophages", "assay_type": "cell-based, mouse", "details": "for IL-6 production induced by LPS (Example 5): FIG. 5C"}, "[2]": {"test_system": "ROS (hydroxyl radical, superoxide, H2O2) in BMMs", "test": "Intracellular ROS production in LPS-stimulated BMMs (HPF / CM-H2DCFDA fluorescence)", "assay_type": "cell-based, mouse", "experimental": "Invitrogen) detects superoxide, H2O2, and hydroxyl radical. […] After preculture, the cells were exposed to LPS ([…]) for 30 minutes and immediately HPF fluorescence or fluorophore DCF were detected at an excitation wavelength of 485 nm and an emission wavelength of 530 nm with a fluorometric imaging plate reader, Synergy HT (Biotech Instruments, Winooski, Vt.)."}, "[3]": {"test_system": "MAPKs (ERK, p38, and JNK)", "test": "Immunoblotting of MAPKs phosphorylation in stimulated BMMs", "assay_type": "cell-based, mouse"}, "[4]": {"test_system": "MAPKs (ERK, p38, and JNK)", "test": "Phosphorylated MAPKs levels in peritoneal cells isolated from treated mice", "assay_type": "in vivo, mouse", "details": "i.p., 45 minutes prior to isolation", "experimental": "After 45 minutes, peritoneal suspensions were obtained by peritoneal lavage as previously described. […] The peritoneal cells were immediately lysed in lysis buffer and performed Immunoblotting as described above."}, "DCs": {"test_system": "DCs", "details": "LPS stimulation"}, "[5]": {"test_system": "MAPKs (ERK, p38, and JNK)", "details": "non-stimulated BMMs, time dependent"}, "MKP-1": {"test_system": "MKP-1", "details": "BMMs, within 20 minutes"}, "p38b": {"target": "p38b (Homo sapiens, UniProt Q15759)", "sequence (Q15759 whole entry, species assumed)": "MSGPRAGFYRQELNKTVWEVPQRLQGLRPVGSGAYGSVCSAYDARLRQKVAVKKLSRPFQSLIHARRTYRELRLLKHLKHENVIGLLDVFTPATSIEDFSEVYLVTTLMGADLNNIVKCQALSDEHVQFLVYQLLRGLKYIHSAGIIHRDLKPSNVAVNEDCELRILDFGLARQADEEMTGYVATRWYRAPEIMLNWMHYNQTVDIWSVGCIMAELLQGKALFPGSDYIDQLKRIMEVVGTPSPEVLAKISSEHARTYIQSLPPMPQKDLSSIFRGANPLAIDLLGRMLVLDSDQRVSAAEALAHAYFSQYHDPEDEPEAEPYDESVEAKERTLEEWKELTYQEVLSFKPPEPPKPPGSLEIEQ", "details": "cited from earlier work"}, "p38gamma": {"target": "T1, p38gamma (Homo sapiens, UniProt P53778)", "T1 sequence (P53778 1-367)": "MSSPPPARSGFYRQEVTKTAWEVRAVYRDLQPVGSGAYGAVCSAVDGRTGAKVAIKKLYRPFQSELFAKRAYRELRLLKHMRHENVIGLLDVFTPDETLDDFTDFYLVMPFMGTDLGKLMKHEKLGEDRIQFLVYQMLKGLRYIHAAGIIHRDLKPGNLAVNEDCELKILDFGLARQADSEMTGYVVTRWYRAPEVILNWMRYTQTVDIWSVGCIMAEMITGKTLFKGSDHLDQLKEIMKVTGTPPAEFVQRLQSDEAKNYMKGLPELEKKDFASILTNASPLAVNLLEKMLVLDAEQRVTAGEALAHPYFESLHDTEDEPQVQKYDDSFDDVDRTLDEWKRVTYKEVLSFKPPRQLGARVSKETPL", "details": "cited from earlier work"}, "p38delta": {"target": "T2, p38delta (Homo sapiens, UniProt O15264)", "T2 sequence (O15264 1-365)": "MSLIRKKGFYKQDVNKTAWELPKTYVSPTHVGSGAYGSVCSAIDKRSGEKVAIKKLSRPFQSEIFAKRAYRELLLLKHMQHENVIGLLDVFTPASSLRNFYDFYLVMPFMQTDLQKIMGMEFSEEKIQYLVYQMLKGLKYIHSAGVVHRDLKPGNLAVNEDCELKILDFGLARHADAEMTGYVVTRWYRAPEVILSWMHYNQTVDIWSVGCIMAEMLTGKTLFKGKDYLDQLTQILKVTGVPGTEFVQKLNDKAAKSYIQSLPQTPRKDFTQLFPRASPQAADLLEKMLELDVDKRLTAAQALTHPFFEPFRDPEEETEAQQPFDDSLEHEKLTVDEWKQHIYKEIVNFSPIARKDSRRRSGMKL", "details": "cited from earlier work"}, "[6]": {"details": "lethal dose of LPS, treatment i.p., plasma 4 hour after LPS"}}, "data": [{"smiles": "[HH]", "note": "[H2, molecular hydrogen]", "values": [{"measurement": "survival rate", "setting": "[1]; mouse, in vivo", "value": 90, "unit": "%"}, {"measurement": "protection from lethal endotoxin shock", "setting": "[1]; mouse, in vivo, po", "value": "prevented the mice from lethal endotoxin shock"}, {"measurement": "IL-6 production in serum", "setting": "[1]; oral administration", "value": "down-regulation"}, {"measurement": "TNF-a production in serum", "setting": "[1]; oral administration", "value": "down-regulation"}, {"measurement": "IL-6 production", "setting": "BMMs; LPS stimulation", "value": "suppressed"}, {"measurement": "IL-12p40 production", "setting": "BMMs; LPS stimulation", "value": "suppressed"}, {"measurement": "TNF-α production", "setting": "BMMs; LPS stimulation", "value": "suppressed"}, {"measurement": "IL-6 production induced by LPS (Example 5)", "setting": "BMMs", "value": "down-regulated"}, {"measurement": "IL-6 production induced by PGN", "setting": "BMMs", "value": "down-regulated"}, {"measurement": "IL-6 production induced by poly(I:C)", "setting": "BMMs", "value": "down-regulated"}, {"measurement": "TNF-α production induced by poly(I:C)", "setting": "BMMs", "value": "suppressed"}, {"measurement": "LPS-mediated induction of fluorescence from DCF (superoxide, H2O2, or hydroxyl radical)", "setting": "[2]", "value": "not affected"}, {"measurement": "LPS-mediated induction of hydroxyl radical (HPF)", "setting": "[2]", "value": "suppressed"}, {"measurement": "phosphorylation level of MAPKs induced by LPS", "setting": "[3]; LPS, ERK, p38 and JNK", "value": "obviously decreased"}, {"measurement": "level of phosphorylated ERK, LPS-induced", "setting": "[3]; LPS, FIG. 5E", "value": "decreased"}, {"measurement": "PGN-induced phosphorylation of ERK and p38", "setting": "[3]", "value": "blocked"}, {"measurement": "poly(I:C)-induced MAPKs phosphorylation", "setting": "[3]", "value": "attenuated"}, {"measurement": "phosphorylation of MAPKs in peritoneal cells", "setting": "[4]", "value": "decreased"}, {"measurement": "IL-6 production", "setting": "DCs", "value": "suppressed"}, {"measurement": "IL-12p40 production", "setting": "DCs", "value": "suppressed"}, {"measurement": "TNF-α production", "setting": "DCs", "value": "suppressed"}, {"measurement": "basal levels of phosphorylated ERK, p38, and JNK", "setting": "[5]", "value": "decreased"}, {"measurement": "expression of MKP-1 protein", "setting": "MKP-1", "value": "up-regulated"}, {"measurement": "H2 concentration at saturation", "setting": "PBS or culture medium, 25° C.", "value": 780, "unit": "mM"}, {"measurement": "pH", "setting": "saturated H2 in water", "value": 7.6}, {"measurement": "redox potential (ORP level)", "setting": "saturated H2 in water", "value": "−511", "unit": "mV"}]}, {"smiles": "CC(=O)N[C@@H](CS)C(=O)O", "note": "[NAC, N-acetyl-L-cysteine, reference compound]", "values": [{"measurement": "serum IL-6 production", "setting": "[1]; [6]", "value": "significantly suppressed"}, {"measurement": "serum TNF-α production", "setting": "[1]; [6]", "value": "significantly suppressed"}, {"measurement": "survival rate", "setting": "[1]; mouse, in vivo", "value": 20, "unit": "%"}, {"measurement": "survival rate", "setting": "[1]; mouse, in vivo, ip", "value": 70, "unit": "%"}, {"measurement": "IL-6 production induced by LPS (Example 5)", "setting": "BMMs", "value": "still inhibited"}, {"measurement": "IL-6 production induced by PGN", "setting": "BMMs", "value": "did not inhibit"}, {"measurement": "IL-6 production induced by poly(I:C)", "setting": "BMMs", "value": "did not inhibit"}, {"measurement": "TNF-α production induced by poly(I:C)", "setting": "BMMs", "value": "not"}, {"measurement": "LPS-mediated induction of fluorescence from DCF (superoxide, H2O2, or hydroxyl radical)", "setting": "[2]", "value": "remarkably inhibited"}, {"measurement": "LPS-mediated induction of hydroxyl radical (HPF)", "setting": "[2]", "value": "suppressed"}, {"measurement": "PGN-induced phosphorylation of ERK and p38", "setting": "[3]", "value": "inhibited little or no"}, {"measurement": "poly(I:C)-induced MAPKs phosphorylation", "setting": "[3]", "value": "not"}, {"measurement": "phosphorylation of MAPKs in peritoneal cells", "setting": "[4]", "value": "did not reduce"}]}, {"smiles": "C[S+]([O-])c1ccc(-c2nc(-c3ccncc3)c(-c3ccc(F)cc3)[nH]2)cc1", "note": "(stereo not drawn) [SB203580]", "values": [{"measurement": "sensitivity to inhibition", "setting": "p38b", "value": "sensitive"}, {"measurement": "sensitivity to inhibition", "setting": "p38gamma", "value": "unaffected"}, {"measurement": "sensitivity to inhibition", "setting": "p38delta", "value": "unaffected"}]}]}
